According to patent US20220050096A1, “ANALYTE-SENSITIVE PROBES AND CONTACT LENS FOR DIAGNOSIS OF OCULAR PATHOLOGIES” (University Of Maryland, Baltimore, priority 2020, published 2022):

Assay: Chloride-dependent intensity decay analysis of SPQ-C18 in Biofinity contact lenses, phosphate buffer pH 7.2
Type: physicochemical
Description: Fluorescence Spectroscopic Measurements. Fluorescence intensities and intensity decays were measured using a Varian™ Eclipse 4 spectrofluorometer and a FluoTime300 instrument from PicoQuant™ (Berlin, Germany) and analyzed with the EasyTau™ software. The excitation source was a 473 nm laser diode with a repetition rate of 40 MHZ and a pulse width less than 100 ps. In other embodiments, the excitation source for SG-PL was at 495 nm from a Solea™ supercontinuum laser (PicoQuant™, Germany) and a 375 nm laser diode (PDL 375, PicoQuant™), a repetition rate of 40 MHz, and a pulse width less than 100 ps. Some intensity and lifetime measurements for SG-PL (as indicated) were performed using Alba V confocal fluorescence lifetime microscopy, FLIM (ISS, Urbana, Ill.), with excitation source of a 473 nm laser diode with a repetition rate of 40 MHz and a pulse width near 250 ps.
Intensity decays were measured at the emission maximum with the band of 10 to 20 nm, analyzed in terms of the multi-exponential model:
I(t)=Σαi exp(−t/ti) (equation 1)
where ti are the individual decay times and αi the initial time-zero amplitudes. The mean decay time can be represented in two ways. The average lifetime is given by:
where Σαi=1.0 and Σfi=1.0. The term fi=αi τi is proportional to the fractional contribution of each component to the total intensity decay. The term τi/Σαi τi is the fractional contribution to the steady state emission. Here, we use the amplitude-weighted lifetime given by
which is appropriate when the emission is from a single fluorophore with a changing quantum yield. For a single exponential decay, the lifetime is given by τ=1.0/(knr+Γ) and the quantum yield is given by Q=Γ/(knr+Γ) where knr is the sum of all non-radiative decay rates and Γ is the radiative decay rate. The value of Γ is determined by the molecular extinction coefficient that remains constant under most conditions. For a single type of fluorophore with a constant value of Γ the normalized αi values represent the molecular fraction of each decay time component. The value of αi and τi were determined by non-linear least squares fitting using PicoQuant™ software.
Quenching by Chloride. Collisional quenching occurs, for example, when SPQ-C18 (also referred to as OD-MQB (N-Octadecyl-6-methoxyquinolinium bromide)) has a diffusion collision with a chloride ion. The intensities (I) and lifetimes (6) are analyzed using the Stern-Volmer equation,
SPQ-C18 was synthesized using 6-methoxy quinolinium (SPQ) and 1-bromooctadecane (C18) as described in the art. Lenses were labeled by incubation with 3 ml of a 1 μM solution of SPQ-C18 in methanol-water. SPQ-C18 bound rapidly to the Biofinity™ lenses. […] Unless stated otherwise, all spectral measurements conducted for the present study were performed in 20 mM MOPS buffer, 8 mM KCl, pH 7.2, at room temperature.

Q: For CCCCCCCCCCCCCCCCCC[n+]1cccc2cc(OC)ccc21 [SPQ-C18, N-Octadecyl-6-methoxyquinolinium bromide], which f1 (NaCl 0 mM) is on record?
A: 0.02

Q: What about the f2 (NaCl 0 mM) of the same compound?
A: 0.10

Q: What about the f3 (NaCl 0 mM) of the same compound?
A: 0.88

Q: What about the α1 (NaCl 0 mM) of the same compound?
A: 0.36

Q: What about the α2 (NaCl 0 mM) of the same compound?
A: 0.21

Q: And the α3 (NaCl 0 mM)?
A: 0.44

Q: What about the τ1 (NaCl 0 mM) of the same compound?
A: 0.69 ns

Q: What about the τ2 (NaCl 0 mM) of the same compound?
A: 5.15 ns

Q: What about the τ3 (NaCl 0 mM) of the same compound?
A: 20.74 ns

Q: What about the τf (NaCl 0 mM) of the same compound?
A: 18.66 ns

Q: What about the τα (NaCl 0 mM) of the same compound?
A: 10.35 ns

Q: And the f1 (NaCl 20 mM)?
A: 0.03

Q: What about the f2 (NaCl 20 mM) of the same compound?
A: 0.13

Q: What about the f3 (NaCl 20 mM) of the same compound?
A: 0.84

Q: And the α1 (NaCl 20 mM)?
A: 0.41

Q: What about the α2 (NaCl 20 mM) of the same compound?
A: 0.21

Q: And the α3 (NaCl 20 mM)?
A: 0.38

Q: And the τ1 (NaCl 20 mM)?
A: 0.65 ns

Q: What about the τ2 (NaCl 20 mM) of the same compound?
A: 4.98 ns

Q: And the τ3 (NaCl 20 mM)?
A: 17.88 ns

Q: And the τf (NaCl 20 mM)?
A: 15.65 ns

Q: And the τα (NaCl 20 mM)?
A: 8.08 ns

Q: And the f1 (NaCl 50 mM)?
A: 0.03

Q: And the f2 (NaCl 50 mM)?
A: 0.22

Q: What about the f3 (NaCl 50 mM) of the same compound?
A: 0.75

Q: What about the α1 (NaCl 50 mM) of the same compound?
A: 0.38

Q: What about the α2 (NaCl 50 mM) of the same compound?
A: 0.29

Q: And the α3 (NaCl 50 mM)?
A: 0.33

Q: What about the τ1 (NaCl 50 mM) of the same compound?
A: 0.73 ns

Q: What about the τ2 (NaCl 50 mM) of the same compound?
A: 5.54 ns

Q: What about the τ3 (NaCl 50 mM) of the same compound?
A: 16.81 ns

Q: What about the τf (NaCl 50 mM) of the same compound?
A: 13.76 ns

Q: What about the τα (NaCl 50 mM) of the same compound?
A: 7.38 ns

Q: What about the f1 (NaCl 90 mM) of the same compound?
A: 0.05

Q: And the f2 (NaCl 90 mM)?
A: 0.26

Q: And the f3 (NaCl 90 mM)?
A: 0.68

Q: What about the α1 (NaCl 90 mM) of the same compound?
A: 0.43

Q: And the α2 (NaCl 90 mM)?
A: 0.31

Q: And the α3 (NaCl 90 mM)?
A: 0.26

Q: What about the τ1 (NaCl 90 mM) of the same compound?
A: 0.75 ns

Q: What about the τ2 (NaCl 90 mM) of the same compound?
A: 5.33 ns

Q: And the τ3 (NaCl 90 mM)?
A: 16.41 ns

Q: And the τf (NaCl 90 mM)?
A: 12.49 ns

Q: What about the τα (NaCl 90 mM) of the same compound?
A: 6.18 ns

Q: What about the f1 (NaCl 140 mM) of the same compound?
A: 0.06

Q: And the f2 (NaCl 140 mM)?
A: 0.31

Q: And the f3 (NaCl 140 mM)?
A: 0.62

Q: And the α1 (NaCl 140 mM)?
A: 0.44

Q: And the α2 (NaCl 140 mM)?
A: 0.33

Q: What about the α3 (NaCl 140 mM) of the same compound?
A: 0.22

Q: And the τ1 (NaCl 140 mM)?
A: 0.82 ns

Q: And the τ2 (NaCl 140 mM)?
A: 5.43 ns

Q: What about the τ3 (NaCl 140 mM) of the same compound?
A: 16.26 ns

Q: And the τf (NaCl 140 mM)?
A: 11.91 ns

Q: What about the τα (NaCl 140 mM) of the same compound?
A: 5.81 ns

Q: What about the f1 (NaCl 200 mM) of the same compound?
A: 0.08

Q: What about the f2 (NaCl 200 mM) of the same compound?
A: 0.34

Q: What about the f3 (NaCl 200 mM) of the same compound?
A: 0.58

Q: What about the α1 (NaCl 200 mM) of the same compound?
A: 0.48

Q: What about the α2 (NaCl 200 mM) of the same compound?
A: 0.34

Q: And the α3 (NaCl 200 mM)?
A: 0.20

Q: What about the τ1 (NaCl 200 mM) of the same compound?
A: 0.77 ns

Q: What about the τ2 (NaCl 200 mM) of the same compound?
A: 4.92 ns

Q: And the τ3 (NaCl 200 mM)?
A: 15.93 ns

Q: What about the τf (NaCl 200 mM) of the same compound?
A: 11.03 ns

Q: What about the τα (NaCl 200 mM) of the same compound?
A: 4.90 ns
